From publication PMC5218480 (PLoS ONE, 2017)

Tested on: MV-4-11 cells
Assay: Gene expression microarray analysis (Affymetrix PrimeView) and GSEA
Format: cell-based, human
Design: RFU PODN (11730768_x_at) / Fold change /veh PODN (11730768_x_at) / RFU LINC00158 (11744669_a_at) / Fold change /veh LINC00158 (11744669_a_at) / RFU DUSP10 (11751237_a_at) / Fold change /veh DUSP10 (11751237_a_at) / RFU ID3 (11757404_x_at) / Fold change /veh ID3 (11757404_x_at) / RFU PLEKHG5 (11737974_s_at) / Fold change /veh PLEKHG5 (11737974_s_at) / RFU LRRC4B (11730491_at) / Fold change /veh LRRC4B (11730491_at) / RFU GIMAP4 (11747438_a_at) / Fold change /veh GIMAP4 (11747438_a_at) / RFU KRT8 (11758183_x_at) / Fold change /veh KRT8 (11758183_x_at) / RFU CNN1 (11734310_a_at) / Fold change /veh CNN1 (11734310_a_at) / RFU VPS37D (11726825_at) / Fold change /veh VPS37D (11726825_at) / RFU C10orf10 (11716522_x_at) / Fold change /veh C10orf10 (11716522_x_at) / RFU KIR2DL2 /// KIR2DL4 /// KIR2DL5A /// KIR2DL5B /// KIR2DS1 /// KIR2DS2 /// KIR2DS3 /// KIR2DS4 /// KIR3DL3 /// KIR3DL3 /// KIR3DS1 (11738374_at) / Fold change /veh KIR2DL2 /// KIR2DL4 /// KIR2DL5A /// KIR2DL5B /// KIR2DS1 /// KIR2DS2 /// KIR2DS3 /// KIR2DS4 /// KIR3DL3 /// KIR3DL3 /// KIR3DS1 (11738374_at) / RFU C1QL1 (11718748_at) / Fold change /veh C1QL1 (11718748_at) / RFU TMPRSS4 (11747572_a_at) / Fold change /veh TMPRSS4 (11747572_a_at) / RFU HAMP (11756126_x_at) / Fold change /veh HAMP (11756126_x_at) / RFU RNFT2 (11725882_a_at) / Fold change /veh RNFT2 (11725882_a_at) / RFU NR4A2 (11747474_a_at) / Fold change /veh NR4A2 (11747474_a_at) / RFU ABCC12 (11746883_a_at) / Fold change /veh ABCC12 (11746883_a_at) / RFU TMEM136 (11760407_x_at) / Fold change /veh TMEM136 (11760407_x_at) / RFU CLDN22 /// WWC2 (11732394_at) / Fold change /veh CLDN22 /// WWC2 (11732394_at) / RFU HLA-DPB1 (11760878_x_at) / Fold change /veh HLA-DPB1 (11760878_x_at) / RFU SPINT1 (11716480_a_at) / Fold change /veh SPINT1 (11716480_a_at) / RFU GAP43 (11754022_s_at) / Fold change /veh GAP43 (11754022_s_at) / RFU A4GNT (11735810_at) / Fold change /veh A4GNT (11735810_at) / RFU PRB3 (11715151_x_at) / Fold change /veh PRB3 (11715151_x_at) / RFU TUBB4B (11761932_at) / Fold change /veh TUBB4B (11761932_at) / RFU CAPN14 (11732068_a_at) / Fold change /veh CAPN14 (11732068_a_at) / RFU TMCC2 (11721928_a_at) / Fold change /veh TMCC2 (11721928_a_at) / RFU IRGQ (11745062_a_at) / Fold change /veh IRGQ (11745062_a_at) / RFU FAM174B (11720279_a_at) / Fold change /veh FAM174B (11720279_a_at) / RFU TMPRSS4 (11748680_a_at) / Fold change /veh TMPRSS4 (11748680_a_at) / RFU FAM212B (11763350_a_at) / Fold change /veh FAM212B (11763350_a_at) / RFU PLEKHG5 (11743358_a_at) / Fold change /veh PLEKHG5 (11743358_a_at) / RFU ZSCAN30 (11745921_a_at) / Fold change /veh ZSCAN30 (11745921_a_at) / RFU CMKLR1 (11741424_a_at) / Fold change /veh CMKLR1 (11741424_a_at) / RFU LOC101060620 /// MAPK8IP1 (11723275_at) / Fold change /veh LOC101060620 /// MAPK8IP1 (11723275_at) / RFU SPTSSB (11747773_x_at) / Fold change /veh SPTSSB (11747773_x_at) / RFU PRSS12 (11739890_at) / Fold change /veh PRSS12 (11739890_at) / RFU BIN1 (11741810_x_at) / Fold change /veh BIN1 (11741810_x_at) / RFU WNT11 (11732464_a_at) / Fold change /veh WNT11 (11732464_a_at) / RFU C10orf10 (11716521_a_at) / Fold change /veh C10orf10 (11716521_a_at) / RFU C5orf56 (11738089_at) / Fold change /veh C5orf56 (11738089_at) / RFU CYB561 (11721691_x_at) / Fold change /veh CYB561 (11721691_x_at) / RFU ANKRD19P (11752326_a_at) / Fold change /veh ANKRD19P (11752326_a_at) / RFU OR2T12 /// OR2T33 /// OR2T8 (11738714_s_at) / Fold change /veh OR2T12 /// OR2T33 /// OR2T8 (11738714_s_at) / RFU VCAN (11748164_a_at) / Fold change /veh VCAN (11748164_a_at) / RFU JSRP1 (11732532_at) / Fold change /veh JSRP1 (11732532_at) / RFU KRTAP10-11 (11738290_x_at) / Fold change /veh KRTAP10-11 (11738290_x_at) / RFU MYO3A (11730013_a_at) / Fold change /veh MYO3A (11730013_a_at) / RFU EBF3 (11725865_a_at) / Fold change /veh EBF3 (11725865_a_at) / RFU CAMK2N1 (11719241_x_at) / Fold change /veh CAMK2N1 (11719241_x_at) / RFU C5orf56 (11738088_a_at) / Fold change /veh C5orf56 (11738088_a_at) / RFU OLFML3 (11715873_a_at) / Fold change /veh OLFML3 (11715873_a_at) / RFU LOC100653217 /// NTM (11731650_a_at) / Fold change /veh LOC100653217 /// NTM (11731650_a_at) / RFU MAPK11 (11762145_a_at) / Fold change /veh MAPK11 (11762145_a_at) / RFU FIZ1 (11724087_x_at) / Fold change /veh FIZ1 (11724087_x_at) / RFU OASL (11726364_x_at) / Fold change /veh OASL (11726364_x_at) / RFU SOX15 (11748057_x_at) / Fold change /veh SOX15 (11748057_x_at) / RFU CD79A (11719716_a_at) / Fold change /veh CD79A (11719716_a_at) / RFU HIST1H1D (11736915_at) / Fold change /veh HIST1H1D (11736915_at) / RFU CASKIN2 (11723855_a_at) / Fold change /veh CASKIN2 (11723855_a_at) / RFU LOC730098 (11760151_x_at) / Fold change /veh LOC730098 (11760151_x_at) / RFU OR4N2 (11742367_at) / Fold change /veh OR4N2 (11742367_at) / RFU PRRT2 (11749266_a_at) / Fold change /veh PRRT2 (11749266_a_at) / RFU SNX32 (11753110_a_at) / Fold change /veh SNX32 (11753110_a_at) / RFU CDHR5 (11726645_a_at) / Fold change /veh CDHR5 (11726645_a_at) / RFU RCAN1 (11760418_a_at) / Fold change /veh RCAN1 (11760418_a_at) / RFU FAM167A (11723789_a_at) / Fold change /veh FAM167A (11723789_a_at) / RFU FAM26E (11764081_at) / Fold change /veh FAM26E (11764081_at) / RFU ISYNA1 (11749810_s_at) / Fold change /veh ISYNA1 (11749810_s_at) / RFU ACY1 (11761880_at) / Fold change /veh ACY1 (11761880_at) / RFU 11764098_at / Fold change /veh 11764098_at / RFU SAMD14 (11745864_x_at) / Fold change /veh SAMD14 (11745864_x_at) / RFU NPB (11741838_a_at) / Fold change /veh NPB (11741838_a_at) / RFU TMPRSS6 (11731388_a_at) / Fold change /veh TMPRSS6 (11731388_a_at) / RFU KRTAP10-2 (11738614_at) / Fold change /veh KRTAP10-2 (11738614_at) / RFU ARHGAP8 /// PRR5-ARHGAP8 (11727945_x_at) / Fold change /veh ARHGAP8 /// PRR5-ARHGAP8 (11727945_x_at) / RFU KRTAP5-7 /// NADSYN1 (11734609_at) / Fold change /veh KRTAP5-7 /// NADSYN1 (11734609_at) / RFU RASL12 (11751679_a_at) / Fold change /veh RASL12 (11751679_a_at) / RFU CDKN2B (11736163_a_at) / Fold change /veh CDKN2B (11736163_a_at) / RFU PRF1 (11729649_at) / Fold change /veh PRF1 (11729649_at) / RFU, ZNF638 /// ZNF638-IT1 / Fold change vs veh, ZNF638 /// ZNF638-IT1 / RFU, PANK3 / Fold change vs veh, PANK3 / RFU, SH3YL1 / Fold change vs veh, SH3YL1 / RFU, ZEB2 / Fold change vs veh, ZEB2 / RFU, NRIP1 / Fold change vs veh, NRIP1 / RFU, PTTG1IP / Fold change vs veh, PTTG1IP / RFU, CAPN2 / Fold change vs veh, CAPN2 / RFU, MED14 / Fold change vs veh, MED14 / RFU, SNORA58 / Fold change vs veh, SNORA58 / RFU, C1orf63 / Fold change vs veh, C1orf63 / RFU, LRRFIP1 / Fold change vs veh, LRRFIP1 / RFU, NDUFAF7 / Fold change vs veh, NDUFAF7 / RFU, SLC12A2 / Fold change vs veh, SLC12A2 / RFU, IBTK / Fold change vs veh, IBTK / RFU, ESF1 / Fold change vs veh, ESF1 / Fold change vs veh, TMEM50B / RFU, TAOK1 / Fold change vs veh, TAOK1 / RFU, ACBD3 / Fold change vs veh, ACBD3 / RFU, TMA16 / Fold change vs veh, TMA16 / RFU, RWDD3 / Fold change vs veh, RWDD3 / RFU, BCAT1 / Fold change vs veh, BCAT1 / RFU, EDEM3 / Fold change vs veh, EDEM3 / RFU, TMEM33 / Fold change vs veh, TMEM33 / RFU, WDR75 / Fold change vs veh, WDR75 / RFU, AHCTF1 / Fold change vs veh, AHCTF1 / RFU, TFRC / Fold change vs veh, TFRC / RFU, ZDHHC17 / Fold change vs veh, ZDHHC17 / RFU, NOM1 / Fold change vs veh, NOM1 / RFU, ARL8B / Fold change vs veh, ARL8B / RFU, ZBTB11 / Fold change vs veh, ZBTB11 / RFU, TAMM41 / Fold change vs veh, TAMM41 / RFU, KIAA1704 /// LOC100996395 / Fold change vs veh, KIAA1704 /// LOC100996395 / RFU, ING1 / Fold change vs veh, ING1 / RFU, TRMT61B / Fold change vs veh, TRMT61B / RFU, FUBP3 / Fold change vs veh, FUBP3 / RFU, TP53 / Fold change vs veh, TP53 / RFU, TNKS2 / Fold change vs veh, TNKS2 / RFU, ZFP14 / Fold change vs veh, ZFP14 / RFU, ACTR2 / Fold change vs veh, ACTR2 / RFU, PPP3R1 / Fold change vs veh, PPP3R1 / RFU, PIK3R1 / Fold change vs veh, PIK3R1 / RFU, HNRNPA1 / Fold change vs veh, HNRNPA1 / RFU, RNF170 / Fold change vs veh, RNF170 / RFU, ZNF28 / Fold change vs veh, ZNF28 / RFU, RNGTT / Fold change vs veh, RNGTT / RFU, OGT / Fold change vs veh, OGT / RFU, BRD1 / Fold change vs veh, BRD1 / RFU, MARS / Fold change vs veh, MARS / RFU, ZNF655 / Fold change vs veh, ZNF655 / RFU, FAHD1 / Fold change vs veh, FAHD1 / RFU, BDP1 / Fold change vs veh, BDP1 / RFU, LRRCC1 / Fold change vs veh, LRRCC1 / RFU, ARID1A / Fold change vs veh, ARID1A / RFU, ZNF146 / Fold change vs veh, ZNF146 / RFU, ZNF330 / Fold change vs veh, ZNF330 / RFU, GPN3 / Fold change vs veh, GPN3 / RFU, C9orf123 / Fold change vs veh, C9orf123 / RFU, N4BP2L2 / Fold change vs veh, N4BP2L2 / RFU, ARFIP1 / Fold change vs veh, ARFIP1 / RFU, FAM179B / Fold change vs veh, FAM179B / RFU, BCL10 / Fold change vs veh, BCL10 / RFU, UHRF1BP1L / Fold change vs veh, UHRF1BP1L / RFU, BET1 / Fold change vs veh, BET1 / RFU, CNOT2 / Fold change vs veh, CNOT2 / RFU, ZNF268 / Fold change vs veh, ZNF268 / Fold change vs veh, ZNF507 / RFU, DGCR2 / Fold change vs veh, DGCR2 / RFU, WDSUB1 / Fold change vs veh, WDSUB1 / Fold change vs veh, HSP90B1 /// MIR3652 / RFU, ADSS / Fold change vs veh, ADSS / RFU, GK / Fold change vs veh, GK / RFU, ZNF148 / Fold change vs veh, ZNF148 / RFU, TAF9 / Fold change vs veh, TAF9 / RFU, SLC1A5 / Fold change vs veh, SLC1A5 / RFU, SLMO2 / Fold change vs veh, SLMO2 / RFU, ABCC4 / Fold change vs veh, ABCC4 / RFU, LOC101060439 /// RAP1B / Fold change vs veh, LOC101060439 /// RAP1B / RFU, RFX7 / Fold change vs veh, RFX7 / RFU, GTPBP10 / Fold change vs veh, GTPBP10 / RFU, CNEP1R1 / Fold change vs veh, CNEP1R1 / RFU, BIVM-ERCC5 /// ERCC5 / Fold change vs veh, BIVM-ERCC5 /// ERCC5 / RFU, ILF3 / Fold change vs veh, ILF3 / RFU 11762660_at / Fold change /veh 11762660_at / RFU VCAN (11757783_s_at) / Fold change /veh VCAN (11757783_s_at) / RFU DDX43 (11728927_at) / Fold change /veh DDX43 (11728927_at) / RFU KRT8 (11758188_x_at) / Fold change /veh KRT8 (11758188_x_at) / RFU NKD1 (11759106_at) / Fold change /veh NKD1 (11759106_at) / RFU SRD5A1 (11742802_a_at) / Fold change /veh SRD5A1 (11742802_a_at) / RFU TPSAB1 /// TPSB2 (11721975_s_at) / Fold change /veh TPSAB1 /// TPSB2 (11721975_s_at) / RFU GSTM3 (11746129_a_at) / Fold change /veh GSTM3 (11746129_a_at) / RFU IL23R (11737362_x_at) / Fold change /veh IL23R (11737362_x_at) / RFU TMEM51 (11727254_a_at) / Fold change /veh TMEM51 (11727254_a_at) / RFU PIWIL2 (11732686_x_at) / Fold change /veh PIWIL2 (11732686_x_at) / RFU ORM1 (11744905_x_at) / Fold change /veh ORM1 (11744905_x_at) / RFU CCDC152 (11743942_at) / Fold change /veh CCDC152 (11743942_at) / RFU ECM1 (11717891_a_at) / Fold change /veh ECM1 (11717891_a_at) / RFU IL23R (11748794_a_at) / Fold change /veh IL23R (11748794_a_at) / RFU TNFAIP8L3 (11732012_x_at) / Fold change /veh TNFAIP8L3 (11732012_x_at) / RFU MBOAT4 (11741988_at) / Fold change /veh MBOAT4 (11741988_at) / RFU 11764193_at / Fold change /veh 11764193_at / RFU TMEM53 (11763286_at) / Fold change /veh TMEM53 (11763286_at) / RFU MAGEB2 (11727129_at) / Fold change /veh MAGEB2 (11727129_at) / RFU TMEM200A (11744735_a_at) / Fold change /veh TMEM200A (11744735_a_at) / RFU CCDC152 (11751479_a_at) / Fold change /veh CCDC152 (11751479_a_at) / RFU FAM211A (11726209_a_at) / Fold change /veh FAM211A (11726209_a_at) / RFU RGS16 (11746705_a_at) / Fold change /veh RGS16 (11746705_a_at) / RFU VCAN (11755009_s_at) / Fold change /veh VCAN (11755009_s_at) / RFU RHOB (11743442_s_at) / Fold change /veh RHOB (11743442_s_at) / RFU RGS16 (11720943_a_at) / Fold change /veh RGS16 (11720943_a_at) / RFU RGS16 (11720944_at) / Fold change /veh RGS16 (11720944_at) / RFU, VPS4B / Fold change vs veh, VPS4B / RFU, CREB1 / Fold change vs veh, CREB1 / RFU, DNAJC13 / Fold change vs veh, DNAJC13 / RFU, GNAQ / Fold change vs veh, GNAQ / RFU, CDK5R1 / Fold change vs veh, CDK5R1 / RFU, ZRANB3 / Fold change vs veh, ZRANB3 / RFU, CUL4A / Fold change vs veh, CUL4A / RFU, CCNY / Fold change vs veh, CCNY / RFU, UFL1 / Fold change vs veh, UFL1 / RFU, COG3 / Fold change vs veh, COG3 / RFU, DIAPH2 / Fold change vs veh, DIAPH2 / RFU, SKA2 / Fold change vs veh, SKA2 / RFU, AFF3 / Fold change vs veh, AFF3 / RFU, LMF1 / Fold change vs veh, LMF1 / RFU, IPO11 / Fold change vs veh, IPO11 / RFU, DFFB / Fold change vs veh, DFFB / RFU, FOXP1 / Fold change vs veh, FOXP1 / RFU, CARD8 / Fold change vs veh, CARD8 / RFU, STRN3 / Fold change vs veh, STRN3 / RFU, ADK / Fold change vs veh, ADK / RFU, RASSF2 / Fold change vs veh, RASSF2 / RFU, WIPF1 / Fold change vs veh, WIPF1 / RFU, LARP1B / Fold change vs veh, LARP1B / RFU, RASA1 / Fold change vs veh, RASA1 / RFU, RB1 / Fold change vs veh, RB1 / RFU, PPFIA1 / Fold change vs veh, PPFIA1 / RFU, MAT2A / Fold change vs veh, MAT2A / RFU, CCT5 / Fold change vs veh, CCT5 / RFU, WDR92 / Fold change vs veh, WDR92 / RFU, CUX1 / Fold change vs veh, CUX1 / RFU, TTC7A / Fold change vs veh, TTC7A / RFU, TMEM135 / Fold change vs veh, TMEM135 / RFU, DEPTOR / Fold change vs veh, DEPTOR / RFU, CPM / Fold change vs veh, CPM / RFU, DNAJB6 / Fold change vs veh, DNAJB6 / RFU, CACNA2D3 / Fold change vs veh, CACNA2D3 / RFU, DTX4 / Fold change vs veh, DTX4 / RFU, TFCP2 / Fold change vs veh, TFCP2 / RFU, GMCL1 /// GMCL1P1 / Fold change vs veh, GMCL1 /// GMCL1P1 / RFU, AEBP2 / Fold change vs veh, AEBP2 / RFU, SNHG1 /// SNORD22 /// SNORD25 /// SNORD26 /// SNORD27 /// SNORD28 /// SNORD29 /// SNORD31 / Fold change vs veh, SNHG1 /// SNORD22 /// SNORD25 /// SNORD26 /// SNORD27 /// SNORD28 /// SNORD29 /// SNORD31 / Fold change (Aza/veh), C12orf56 (ProbeSet 11735607_a_at) / Fold change (ACY-1035/veh), C12orf56 (ProbeSet 11735607_a_at) / Fold change (Aza/veh), FGFR1OP (ProbeSet 11751329_s_at) / Fold change (ACY-1035/veh), FGFR1OP (ProbeSet 11751329_s_at) / Fold change (Aza/veh), VPS36 (ProbeSet 11739960_a_at) / Fold change (ACY-1035/veh), VPS36 (ProbeSet 11739960_a_at) / RFU SYPL1 (11715823_x_at) / Fold change /veh SYPL1 (11715823_x_at) / RFU IGFBP7 (11715501_s_at) / Fold change /veh IGFBP7 (11715501_s_at) / RFU REEP3 (11722064_at) / Fold change /veh REEP3 (11722064_at) / RFU IGLL1 (11728026_x_at) / Fold change /veh IGLL1 (11728026_x_at): dose or concentration left out as unconfirmed
Conditions: ProbeSet 11734937_a_at; LIST B

Question: `Nc1ncn([C@@H]2O[C@H](CO)[C@@H](O)[C@H]2O)c(=O)n1` [azacitidine] was tested. Which “RFU, CNOT2” value did it give?
Answer: Its value is 887.01 RFU.
